Measurements taken from PubChem BioAssay AID248 (DTP/NCI, 2004).
Where “and” joins values, the source holds several entries; their conditions need not be identical. Equal values may be shown once. Inconclusive results and toxic doses are left out. Rule as the data show it: active = T/C of 150% or more; inactive = T/C below 125%.

Test system: L1210 leukemia ip in BDF1 mice, survival T/C
Assay: NCI In Vivo Anticancer Drug Screen. Data for tumor model L1210 Leukemia (intraperitoneal) in B6D2F1 (BDF1) mice
Details: endpoint: mean survival time, higher = longer survival
How it was run: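 Tumor was transplanted into mice, which were then dosed with test compound or vehicle alone. Survival was recorded for each group, and the treated figure was expressed relative to the control figure.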

[1] = dose: 100.0 mg/kg/injection, schedule: Q01DX001 (ip), vehicle: saline
[2] = dose: 200.0 mg/kg/injection, schedule: Q01DX001 (ip), vehicle: saline
[3] = dose: 400.0 mg/kg/injection, schedule: Q01DX001 (ip), vehicle: saline
[4] = dose: 50.0 mg/kg/injection, schedule: Q01DX009 (ip), vehicle: Klucel (hydroxypropylcellulose) (HPC)
[5] = dose: 100.0 mg/kg/injection, schedule: Q01DX009 (ip), vehicle: Klucel (hydroxypropylcellulose) (HPC)
[6] = dose: 100.0 mg/kg/injection, schedule: Q04DX003 (ip), vehicle: saline with Tween-80
[7] = dose: 200.0 mg/kg/injection, schedule: Q04DX003 (ip), vehicle: saline with Tween-80
[8] = dose: 50.0 mg/kg/injection, schedule: Q01DX009 (ip), vehicle: saline
[9] = dose: 100.0 mg/kg/injection, schedule: Q01DX001 (ip), vehicle: Klucel (hydroxypropylcellulose) (HPC)
[10] = dose: 100.0 mg/kg/injection, schedule: Q01DX009 (ip), vehicle: saline
[11] = dose: 200.0 mg/kg/injection, schedule: Q01DX001 (ip), vehicle: Klucel (hydroxypropylcellulose) (HPC)
[12] = dose: 200.0 mg/kg/injection, schedule: Q01DX009 (ip), vehicle: saline
[13] = dose: 400.0 mg/kg/injection, schedule: Q01DX001 (ip), vehicle: Klucel (hydroxypropylcellulose) (HPC)
[14] = dose: 50.0 mg/kg/injection, schedule: Q01DX009 (ip), vehicle: saline with Tween-80
[15] = dose: 100.0 mg/kg/injection, schedule: Q01DX009 (ip), vehicle: saline with Tween-80
[16] = dose: 200.0 mg/kg/injection, schedule: Q01DX009 (ip), vehicle: saline with Tween-80
[17] = dose: 400.0 mg/kg/injection, schedule: Q04DX003 (ip), vehicle: saline with Tween-80
[18] = dose: 400.0 mg/kg/injection, schedule: Q01DX009 (ip), vehicle: saline with Tween-80
[19] = dose: 25.0 mg/kg/injection, schedule: Q01DX009 (ip), vehicle: saline
[20] = dose: 100.0 mg/kg/injection, schedule: Q01DX009 (ip), vehicle: saline sonified
[21] = dose: 200.0 mg/kg/injection, schedule: Q01DX009 (ip), vehicle: saline sonified
[22] = dose: 400.0 mg/kg/injection, schedule: Q01DX009 (ip), vehicle: saline sonified
[23] = dose: 100.0 mg/kg/injection, schedule: Q04DX003 (ip), vehicle: Klucel (hydroxypropylcellulose) (HPC)
[24] = dose: 200.0 mg/kg/injection, schedule: Q04DX003 (ip), vehicle: Klucel (hydroxypropylcellulose) (HPC)
[25] = dose: 400.0 mg/kg/injection, schedule: Q04DX003 (ip), vehicle: Klucel (hydroxypropylcellulose) (HPC)

Measured: T/C

O=c1cc(/C=N\Nc2ccc([N+](=O)[O-])cc2)[nH]c(=O)[nH]1
inactive: dose: 50.0 mg/kg/injection, schedule: Q01DX001 (ip), vehicle: saline 106 % of control | [1] 95 % of control | [2] 101 % of control | [3] 90 % of control

O=c1[nH][nH]c2c1cnc1ccccc12
inactive: [4] 97 % of control | [5] 101 % of control | dose: 200.0 mg/kg/injection, schedule: Q01DX009 (ip), vehicle: Klucel (hydroxypropylcellulose) (HPC) 94 % of control

N#C/C(=C\c1cc(Cl)cc(Cl)c1O)c1ccc([N+](=O)[O-])cc1
inactive: [6] 90 % of control | [7] 92 % of control

O=Cc1c[nH]c(=O)[nH]c1=O
inactive: [8] 109 % of control | [9] 94 % of control | [10] 103 % of control | dose: 100.0 mg/kg/injection, schedule: Q04DX003 (ip), vehicle: saline 95 % of control | [11] 105 % of control | [12] 106 % of control | dose: 200.0 mg/kg/injection, schedule: Q04DX003 (ip), vehicle: saline 103 % of control | [13] 101 % of control | dose: 400.0 mg/kg/injection, schedule: Q04DX003 (ip), vehicle: saline 95 % of control

O=C(O)CCCC1CC(=O)c2c(c(O)c3ccccc3c2O)C1=O (stereo not drawn)
inactive: [14] 101 % of control | [15] 103 % of control | [6] 101 % of control | [16] 101 % of control | [7] 95 % of control | [17] 95 % of control

O=C(O)C(Sc1ccccc1)c1ccccc1 (stereo not drawn)
inactive: dose: 100.0 mg/kg/injection, schedule: Q04DX002 (ip), vehicle: gum acacia 100 % of control | dose: 200.0 mg/kg/injection, schedule: Q04DX002 (ip), vehicle: gum acacia 100 % of control | dose: 400.0 mg/kg/injection, schedule: Q04DX002 (ip), vehicle: gum acacia 104 % of control

COc1cc(N(CCCl)CCCl)ccc1C=Nc1ccc2c(c1)ncn2C
inactive: dose: 75.0 mg/kg/injection, schedule: Q04DX002 (ip), vehicle: Klucel (hydroxypropylcellulose) (HPC) 112 % of control | dose: 150.0 mg/kg/injection, schedule: Q04DX002 (ip), vehicle: Klucel (hydroxypropylcellulose) (HPC) 101 % of control | dose: 300.0 mg/kg/injection, schedule: Q04DX002 (ip), vehicle: Klucel (hydroxypropylcellulose) (HPC) 108 % of control

COc1cc(CC(=O)O)ccc1OCc1ccccc1
inactive: [15] 101 % of control | [16] 101 % of control | [18] 116 % of control

CC[P+](CC)(CC)CCCCI
inactive: dose: 12.0 mg/kg/injection, schedule: Q01DX009 (ip), vehicle: saline 94 % of control | [19] 101 % of control | dose: 25.0 mg/kg/injection, schedule: Q04DX003 (ip), vehicle: saline 105 % of control | [8] 101 % of control and 91 % of control | dose: 50.0 mg/kg/injection, schedule: Q04DX003 (ip), vehicle: saline 114 % of control

CCOC(=O)c1[nH]c(-c2ccccc2)c(C=O)c1-c1ccccc1
inactive: [9] 100 % of control | [11] 100 % of control | [13] 100 % of control

Cc1ccccc1C1SCCCS1
inactive: [6] 101 % of control | [7] 96 % of control | [17] 107 % of control

[O-]/[N+](=C\c1ccc(/C=[N+](\[O-])c2ccccc2)cc1)c1ccccc1
inactive: dose: 5.0 mg/kg/injection, schedule: Q01DX001 (ip), vehicle: saline 97 % of control | dose: 10.0 mg/kg/injection, schedule: Q01DX001 (ip), vehicle: saline 95 % of control | dose: 20.0 mg/kg/injection, schedule: Q01DX001 (ip), vehicle: saline 97 % of control | dose: 40.0 mg/kg/injection, schedule: Q01DX001 (ip), vehicle: saline 92 % of control | dose: 80.0 mg/kg/injection, schedule: Q01DX001 (ip), vehicle: saline 97 % of control

N#CC(/C=C/c1ccccc1)NCC(O)c1ccccc1 (stereo not drawn)
inactive: [20] 95 % of control | [21] 95 % of control | [22] 95 % of control

CN(C)/N=C(\CBr)c1ccc([N+](=O)[O-])cc1
inactive: [14] 96 % of control | [15] 96 % of control | [16] 89 % of control

CC(C)(CBr)COC(=O)Nc1ccc2ccccc2c1
inactive: [14] 95 % of control | [15] 95 % of control | [16] 88 % of control

O=S(=O)(O)CCNC(=S)C(=S)NCCS(=O)(=O)O
inactive: dose: 100.0 mg/kg/injection, schedule: Q04DX002 (ip), vehicle: saline 101 % of control | dose: 200.0 mg/kg/injection, schedule: Q04DX002 (ip), vehicle: saline 101 % of control | dose: 400.0 mg/kg/injection, schedule: Q04DX002 (ip), vehicle: saline 101 % of control

NNC(=O)CC(NN)c1ccccc1O (stereo not drawn)
inactive: dose: 100.0 mg/kg/injection, schedule: Q04DX002 (ip), vehicle: saline with Tween-80 90 % of control | dose: 200.0 mg/kg/injection, schedule: Q04DX002 (ip), vehicle: saline with Tween-80 100 % of control | dose: 400.0 mg/kg/injection, schedule: Q04DX002 (ip), vehicle: saline with Tween-80 102 % of control

O=C(c1cc(Cl)cc(Cl)c1)N1CC1
inactive: [19] 100 % of control | [8] 91 % of control | [10] 90 % of control | [12] 100 % of control | dose: 400.0 mg/kg/injection, schedule: Q01DX009 (ip), vehicle: saline 96 % of control

Cc1ccc(S(=O)(=O)N(C)c2cc(Cl)c(C(N)=O)c(Cl)c2)cc1
inactive: [9] 93 % of control | [20] 97 % of control | [15] 98 % of control | [6] 105 % of control | [11] 95 % of control | [21] 105 % of control | [16] 90 % of control | [7] 101 % of control | [13] 100 % of control | [22] 93 % of control | [18] 92 % of control | [17] 92 % of control

COc1ccc(C)cc1NC(=S)NC(=O)C(C)Oc1ccccc1 (stereo not drawn)
inactive: dose: 25.0 mg/kg/injection, schedule: Q01DX009 (ip), vehicle: Klucel (hydroxypropylcellulose) (HPC) 95 % of control | [4] 93 % of control | [5] 101 % of control and 91 % of control | [23] 97 % of control | [24] 103 % of control | [25] 97 % of control

Cc1nc2ccc(N=Cc3ccc(N(CCCl)CCCl)cc3)cc2[nH]1
inactive: [23] 102 % of control | [24] 98 % of control | [25] 104 % of control

O=C(Nc1cccc(S(=O)(=O)F)c1)c1ccc([N+](=O)[O-])cc1
inactive: [1] 107 % of control | [2] 103 % of control | [3] 90 % of control
